Test results published in PubChem BioAssay AID1259407 (Chemical Carcinogenesis Research Information System (CCRIS), 2018).
Calls of active or inactive are those of the source. No rule for the calls is given here.

System: CCRIS mutagenicity, Ames/micronucleus/aberration tests
Experiment: CCRIS mutagenicity studies

SMILES: CN(C)c1ccc2nc3ccc(=[N+](C)C)cc-3sc2c1
- mutagenic call (End Point: In vitro chromosomal aberrations, Test System: Chinese hamster ovary cells, Metabolic Activation: None): active; positive
- mutagenic call (End Point: In vitro chromosomal aberrations, Test System: Chinese hamster ovary cells, Metabolic Activation: Rat, Liver, S-9, Aroclor): active; positive
- mutagenic call (End Point: In vivo micronucleus, Test System: Bone marrow, Species: Mouse, Strain/Sex: B6C3F1/Male, Route: Intraperitoneal): inactive; negative
- mutagenic call (End Point: In vivo micronucleus, Test System: Peripheral blood normochromatic erythrocytes, Species: Mouse, Strain/Sex: B6C3F1/Female, Route: Oral): inactive; negative
- mutagenic call (End Point: In vivo micronucleus, Test System: Peripheral blood normochromatic erythrocytes, Species: Mouse, Strain/Sex: B6C3F1/Male, Route: Intraperitoneal): inactive; negative
- mutagenic call (End Point: In vivo micronucleus, Test System: Peripheral blood normochromatic erythrocytes, Species: Mouse, Strain/Sex: B6C3F1/Male, Route: Oral): inactive; negative
- mutagenic call (Test System: AMES SALMONELLA TYPHIMURIUM, Strain/Indicator: TA98, Metabolic Activation: HAMSTER, LIVER, S-9, AROCLOR 1254, Method: STANDARD PLATE): active; positive
- mutagenic call (Test System: AMES SALMONELLA TYPHIMURIUM, Strain/Indicator: TA98, Metabolic Activation: NONE, Method: STANDARD PLATE): inactive; negative
- mutagenic call (Test System: AMES SALMONELLA TYPHIMURIUM, Strain/Indicator: TA98, Metabolic Activation: RAT, LIVER, S-9, AROCLOR 1254, Method: STANDARD PLATE): active; positive
- mutagenic call (Test System: AMES SALMONELLA TYPHIMURIUM, Strain/Indicator: TA100, Metabolic Activation: NONE, Method: STANDARD PLATE): active; positive
- mutagenic call (Test System: AMES SALMONELLA TYPHIMURIUM, Strain/Indicator: TA100, Metabolic Activation: RAT, LIVER, S-9, AROCLOR 1254, Method: STANDARD PLATE): active; positive
- mutagenic call (Test System: Ames Salmonella typhimurium, Strain/Indicator: TA98, Metabolic Activation: Hamster, Liver, S-9, Aroclor 1254 (30%), Method: Standard plate): active; positive
- mutagenic call (Test System: Ames Salmonella typhimurium, Strain/Indicator: TA98, Metabolic Activation: None, Method: Preincubation): active; positive
- mutagenic call (Test System: Ames Salmonella typhimurium, Strain/Indicator: TA98, Metabolic Activation: None, Method: Standard plate): active; positive
- mutagenic call (Test System: Ames Salmonella typhimurium, Strain/Indicator: TA98, Metabolic Activation: Rat, Liver, S-9, Aroclor 1254 (10%), Method: Preincubation): active; positive
- mutagenic call (Test System: Ames Salmonella typhimurium, Strain/Indicator: TA98, Metabolic Activation: Rat, Liver, S-9, Aroclor 1254 (30%), Method: Standard plate): active; positive
- mutagenic call (Test System: Ames Salmonella typhimurium, Strain/Indicator: TA100, Metabolic Activation: Hamster, Liver, S-9, Aroclor 1254 (30%), Method: Standard plate): active; positive
- mutagenic call (Test System: Ames Salmonella typhimurium, Strain/Indicator: TA100, Metabolic Activation: None, Method: Preincubation): active; positive
- mutagenic call (Test System: Ames Salmonella typhimurium, Strain/Indicator: TA100, Metabolic Activation: None, Method: Standard plate): inactive; negative (ntp describes as equivocal)
- mutagenic call (Test System: Ames Salmonella typhimurium, Strain/Indicator: TA100, Metabolic Activation: Rat, Liver, S-9, Aroclor 1254 (10%), Method: Preincubation): active; positive
- mutagenic call (Test System: Ames Salmonella typhimurium, Strain/Indicator: TA100, Metabolic Activation: Rat, Liver, S-9, Aroclor 1254 (30%), Method: Standard plate): active; positive
- mutagenic call (Test System: E. coli, Strain/Indicator: WP uvrA/pKM101, Metabolic Activation: None, Method: Preincubation): active; positive
- mutagenic call (Test System: E. coli, Strain/Indicator: WP uvrA/pKM101, Metabolic Activation: Rat, Liver, S-9, Aroclor 1254 (10%), Method: Preincubation): active; positive
- mutagenic call (Test System: MOUSE LYMPHOMA, Strain/Indicator: L5178Y (TK+/TK-), Metabolic Activation: NONE, Method: SUSPENSION/PLATE): active; positive
- mutagenic call (Test System: MOUSE LYMPHOMA, Strain/Indicator: L5178Y (TK+/TK-), Metabolic Activation: RAT, LIVER, S-9, Method: SUSPENSION/PLATE): active; positive
- mutagenic call (Test System: Mouse lymphoma, Strain/Indicator: L5178Y (tk+/tk-), Metabolic Activation: None, Method: Suspension/plate): active; positive
- mutagenic call (Test System: Mouse lymphoma, Strain/Indicator: L5178Y (tk+/tk-), Metabolic Activation: Rat, Liver, S-9, Aroclor 1254, Method: Suspension/plate): active; positive
